Literature values as cited in US20220040193A1, “FORMULATIONS OF PHOSPHOINOSITIDE 3-KINASE INHIBITORS” (VENTHERA, INC., priority 2020, published 2022).

Assays:
[1] = test system: cancer cell
[2] = test system: PI3K

In the case of Oc1cccc(-c2nc(N3CCOCC3)c3sccc3n2)c1 [MTPP, 3-(4-morpholinothieno(3,2-d)pyrimidin-2-yl)phenol], the “cancer cell growth inhibiting activity” value [1] is listed as “cancer cell growth inhibiting activity” and the PI3K inhibiting activity [2] is listed as “excellent PI3K inhibiting activity”.
